Reference: PubChem BioAssay (NCI)
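Growth conditions: 96-well plates. Treatment: test compound, 48 hours, 5 concentrations. Analysis: linear interpolation between bracketing concentrations; unreached endpoints set to highest concentration. Abbreviation: GI50, concentration required for 50% inhibition of growth. TGI: concentration producing complete growth inhibition.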

Tests used:
Assay in all cases: NCI tumour cell line growth inhibition, 48 h
SK-MEL-28 melanoma = system: SK-MEL-28 melanoma
OVCAR-8 ovarian = system: OVCAR-8 ovarian
MCF7 breast = system: MCF7 breast
CAKI-1 renal = system: CAKI-1 renal
HCT-15 colon = system: HCT-15 colon
IGROV1 ovarian = system: IGROV1 ovarian
786-0 renal = system: 786-0 renal
SF-539 CNS = system: SF-539 CNS
MOLT-4 leukemia = system: MOLT-4 leukemia
SW-620 colon = system: SW-620 colon

Structure (SMILES)	TGI (SK-MEL-28 melanoma)	TGI (OVCAR-8 ovarian)	TGI (MCF7 breast)	TGI (CAKI-1 renal)	TGI (HCT-15 colon)	TGI (IGROV1 ovarian)	TGI (786-0 renal)	TGI (SF-539 CNS)	TGI (MOLT-4 leukemia)	TGI (SW-620 colon)	GI50 (SK-MEL-28 melanoma)	GI50 (OVCAR-8 ovarian)	GI50 (MCF7 breast)	GI50 (CAKI-1 renal)	GI50 (HCT-15 colon)	GI50 (IGROV1 ovarian)	GI50 (786-0 renal)	GI50 (SF-539 CNS)	GI50 (MOLT-4 leukemia)	GI50 (SW-620 colon)
O=NN(Cc1ccc(Cl)cc1)C(C(=O)O)c1ccccc1 (stereo not given)	> 100 µM	> 100 µM	> 100 µM	> 100 µM	> 100 µM	> 100 µM	> 100 µM	> 100 µM	> 100 µM	> 100 µM	–	–	–	–	–	–	–	–	–	–
CCOC(=O)CCc1cc(=O)oc2cc(O)cc(O)c12	> 100 µM	> 100 µM	> 100 µM	> 100 µM	> 100 µM	> 100 µM	> 100 µM	> 100 µM	> 100 µM	> 100 µM	–	–	–	–	–	–	–	–	–	–
C[C@]12CC[C@H](O)CC1=CC[C@@H]1[C@@H]2CC[C@]2(C)C(c3cccnc3)=CC[C@@H]12	> 100 µM	> 100 µM	> 100 µM	> 100 µM	> 100 µM	> 100 µM	> 100 µM	> 100 µM	> 100 µM	> 100 µM	61.3 µM	29.5 µM	> 100 µM	> 100 µM	25.8 µM	> 100 µM	5.18 µM	8.31 µM	> 38.5 µM	> 100 µM
CCCCC/C(C=C(C#N)C#N)=C/c1ccccc1	8.57 µM	> 100 µM	17.4 µM	21.3 µM	27.5 µM	27.7 µM	21.6 µM	17.7 µM	6.98 µM	10.9 µM	2.86 µM	3.34 µM	3.46 µM	1.3 µM	5.13 µM	8.18 µM	7.45 µM	5.17 µM	2.37 µM	3.12 µM
N#Cc1ccc(C#Cc2ccccc2C#CCCCCO)cc1	53.7 µM	35.5 µM	45.6 µM	39.8 µM	29 µM	27.6 µM	18.1 µM	32 µM	37.7 µM	35 µM	25.6 µM	18.6 µM	22.1 µM	21 µM	15.6 µM	13.6 µM	4.39 µM	17.5 µM	17.8 µM	17.4 µM
Cc1c(C(=O)N/N=C/c2ccc(Cl)cc2)nnn1-c1ccnc2c(C(F)(F)F)cccc12	38.5 µM	4.71 µM	5.61 µM	45.1 µM	16.3 µM	37 µM	37.8 µM	25.8 µM	35.3 µM	47.6 µM	14.4 µM	2.25 µM	2.27 µM	17.6 µM	2.88 µM	9.06 µM	18.5 µM	12.6 µM	6.39 µM	5.09 µM
Cc1ccc(-c2c3c([nH]c(=O)c2C#N)-c2cc(F)ccc2OC3)cc1	> 100 µM	> 100 µM	> 100 µM	> 100 µM	> 100 µM	> 100 µM	> 100 µM	> 100 µM	> 100 µM	> 100 µM	> 100 µM	> 100 µM	52.7 µM	82.1 µM	91 µM	52.3 µM	64.4 µM	> 100 µM	97.5 µM	> 100 µM
O=C1CNCCCN2CCN(CCCNCC(=O)Nc3ccc(cc3)S(=O)(=O)c3ccc(cc3)NC(=O)CNCCCN3CCN(CCCNCC(=O)Nc4ccc(cc4)S(=O)(=O)c4ccc(cc4)N1)CC3)CC2	> 56.8 µM	> 56.9 µM	> 100 µM	99.2 µM	> 54.8 µM	> 69.7 µM	38.9 µM	44.6 µM	> 51 µM	> 100 µM	–	–	–	–	–	–	–	–	–	–
CN(C)CCC(=O)N1C/C(=C/c2ccccc2)C(=O)/C(=C\c2ccccc2)C1	5.18 µM	7.58 µM	2.19 µM	7.02 µM	3.91 µM	7.02 µM	3.62 µM	11.9 µM	1.46 µM	1.22 µM	–	–	–	–	–	–	–	–	–	–
CC1CCC2(C(=O)O)CCC3(C)C(=CCC4C5(C)CC(O)C(O)C(C)(CO)C5C(O)CC43C)C2C1C (stereo not given)	69 µM	42.6 µM	> 100 µM	> 100 µM	> 100 µM	35.9 µM	20 µM	75.9 µM	> 100 µM	> 100 µM	–	–	–	–	–	–	–	–	–	–
CCCCC(=O)OCC1OC(n2cnc3c(=S)nc[nH]c32)C(OC(=O)CCCC)C1OC(=O)CCCC (stereo not given)	> 100 µM	> 100 µM	> 100 µM	> 100 µM	> 100 µM	> 39.4 µM	> 100 µM	> 62 µM	> 100 µM	> 100 µM	57.4 µM	3.05 µM	1.13 µM	2.26 µM	1.56 µM	3.86 µM	2.24 µM	2.07 µM	5.74 µM	1.51 µM
